Consider one molecule from patent publication US7812142B2, “Pentose derivatives as anti-hyperglycemic drugs” (Yissum Research Development Company of the Hebrew …, priority 2002, dated 2010).

pEC50: −log10 of the molar value.

Series [1] deals with glucose uptake in cultured cells. The series is described as follows: In vitro glucose uptake / hexose transport in cultured cells with xylose derivatives (Table 2). Type of series: cell-based. The method, then: Table 2 summarizes in vitro results obtained with some of these newly synthesized xylose derivatives.
(§1) Uptake assay of the tritiated glucose analogue, 2-deoxy-D-glucose, is routinely performed as described in [Sasson, S. and Cerasi, E. (1986) J. Biol. Chem. 261, 16827-16833].
All new compounds are screened and tested first in various insulin-sensitive cell cultures used routinely in the laboratory (skeletal muscle and adipose cell lines). In addition these drugs were tested in non-insulin-sensitive cells such as primary cultures of bovine and porcine vascular endothelial and smooth muscle cells. Active compounds were tested ex-vivo on isolated rat soleus muscles. All cell cultures and tissues were maintained under hyperglycemic condition prior to the addition of the test compounds. Dose-response and time-course experiments determine which of the derivatives are subsequently tested in animal models. For each potent compound the total cell content and plasma membrane abundance of GLUT-1 and GLUT-4 was determined, as described above. The same biotinylation technique was employed to determine the total and plasma membrane content of both transporters in isolated mouse or rat soleus muscles treated with potent compounds.

Series [2] has as its system 3T3-L1 adipocytes. The series is described as follows: Screening of methylated xylose derivatives, dGlc uptake assay (Table 1). It counts as cell-based. The following applies: Mean±SEM (n=3-6).
Text: There are five carbon atoms in xylose available for chemical modifications. Each of these atoms was methylated by modifications of published chemical procedures [Bollenback, G. N. (1963) In Methods in carbohydrate chemistry, vol. 2 (Whistler, R. L. and Wolfrom, M. L., eds.), pp. 326-331, Academic Press, New York; Bowering, W. and Timel, T. (1958) Can. J. Chem. 36, 283-285; Levine, P. and Raymomd, A. (1933) J. Biol. Chem. 102, 331-344; Takeo, K. (1992) Carbohyd. Res. 224, 311-318]. All compounds were purified by HPLC and their structure verified by NMR spectroscopy. […] At the end of the incubation period the cells were taken for a standard [^3H]-2-deoxy-D-glucose uptake assay in the absence or the presence of 500 nM insulin (30 min exposure prior to the uptake assay).
3T3-L1 adipocytes and L6 myotubes were maintained for 24 hr at 20 mM glucose. Test compounds were added (0.1-20.0 mM) and the cells were incubated further for 2-45 hr. At the end of the incubation periods the cells were washed and taken for a standard [^3H]2-deoxy-D-glucose (dGlc) uptake assay. Uptake values (given for control cells) are in nmol dGlc/mg protein/min. Mean±SEM (n=3-6).
as §1

The subject of series [3] is glucose transporter. Description: Non-radioactive fluorimetric dGlc-6-P uptake assay with 10 mM dGlc. It counts as cell-based. The following applies: 10 mM dGlc in the uptake assay. The method, then: Since the standard hexose transport assay utilizes 0.1 mM dGlc in the presence of tracer amount of [^3H] dGlc, the inventors asked whether the results shown above were limited to this particular assay condition. Therefore, experiments were repeated with 10 mM dGlc in the uptake assay. […] The uptake of hexose under these assay conditions was also linear up to 25 min.

Series [4] has as its system PKB. The series is described as follows: PKB phosphorylation immunoblot in L6 myotubes. The following applies: 23.0 mM glucose; 100 nM insulin, 20 mM xylose, 5 mM EH-114 or 250 μM EH-40, up to 24 hrs (FIG. 11B). It counts as cell-based, rat. The method, then:
FIG. 11B: Effects of insulin D-xylose and xylose derivatives on PKB phosphorylation. L6 myotubes were maintained at 5.5 mM or 23.0 mM glucose. The latter were treated with 100 nM insulin, 20 mM xylose, 5 mM EH-114 or 250 μM EH-40 up to 24 hrs. At the indicated times treated myotubes were collected, homogenized and lysed and the soluble protein fraction was isolated. The control myotubes were collected at the end of the 24 hr incubation period. Equal amounts of proteins of the various treated myotubes were separated on SDS-PAGE and immunoblotted with a specific antibody against phospho-Axt1/PKBα (Ser473). In order to test whether xylose derivative activate insulin transduction elements downstream of PI3K, the inventors tested the state of PKB phosphorylation, as shown in FIG. 11B.

Series [5] has as its system L8 myocytes. Description: [3H]-2-deoxy-D-glucose (dGlc) uptake assay in L8 myocytes. It counts as cell-based. The method, then: (§2) The time-course of D-xylose effect in two types of skeletal muscle cells (L8 myocytes and C2 myotubes) was studied. L8 myocytes and C2 myotubes preconditioned in 20 mM glucose were incubated with 20 mM xylose. After 90 min the cells were washed and incubated with 20 mM glucose, and subjected to a deoxyglucose dGlc uptake assay (14).
(§3) It has shown before by the inventors of the present invention that deoxyglucose (dGlc) depresses the hexose transport system in myocytes and that a subsequent incubation with low (even no) glucose fails to reverse this effect of dGlc [Sasson, S et al (1997)]. The inventors have therefore measured the effect of D-xylose on rate of hexose transport following treatment with dGlc. In one experiment, C2 myotubes preconditioned with 2 mM glucose received fresh medium containing 2 mM dGlc. A portion of the cells were washed after 30 min and received 20 MM D-xylose or 2 mM D-glucose, and subjected to a dGlc uptake assay at different time points. In another experiment, L8 myocytes preconditioned with 2 mM glucose were washed and incubated with 2 mM xylose or 2 mM dGlc. A portion of the cells were washed again after 2 hr and incubated with 20 mM xylose, and subjected to a dGlc uptake assay at different time points.
This conclusion is also supported by the finding of the a better ability of D-xylose than the other pentoses to reverse 2-deoxy-D-glucose-induced downregulation of the hexose transport system in L8 myocytes. L8 myocytes were preconditioned with 2 mM glucose, washed and incubated with 2 mM dGlc. After 30 min a portion of the cells were washed again and incubated with 20 mM xylose, ribose, arabinose or lyxose. Cells were subjected to the dGlc uptake assay at various time points.
as §1

The nature of series [6]: Half-life of D-xylose measured in rats. The following applies: rat, in vivo.
For series [7], the system named is C2 myotubes. The series is described as follows: dGlc uptake assay in C2 myotubes. Type of series: cell-based, mouse. The method, then:
as §2
The inventors have also measured the effect of different doses of D-xylose in C2 myotubes. C2 myotubes preconditioned with 20 mM glucose received fresh medium containing 20 mM glucose or increasing concentrations of D-xylose. Standard dGlc uptake assay was performed after 1 hr incubation. […] D-xylose augmented the rate of hexose transport ˜2-fold within 1-2 hr; half-maximal stimulation was observed within 20-30 min, as shown in FIG. 2.
However, in the above experiments the cells were exposed to D-xylose after removal of the conditioning glucose concentration. […] The inventors therefore added 20 mM D-xylose to C2 myotubes in the presence of 8 or 16 mM glucose and followed its effect.
as §3, §1

[8] abbreviates: 20 mM xylose, cells preconditioned in 20 mM glucose (FIG. 1).

Take `O=C[C@H](O)[C@@H](O)[C@H](O)CO` [D-xylose]: in series [1], the “Fold Increase of Glucose Uptake” value is given as around 2.0 fold. Further, the negative-log EC50 (pEC50) (usually the negative decadic logarithm of the EC50, by convention in mol/L) in series [1] (EC = Effective concentration) was 1.92. Further, the ECmax in series [1] (EC = Effective concentration) was determined as 20 mM. For the same molecule, the “time to loss of activity after being removed” value in series [1] (after being washed from cell cultures) lay within 10 to 20 min. In series [2] (3T3-L1 adipocytes 24 hr at 20 mM glucose, test compounds 0.1-20.0 mM, 2-45 hr), the “HEXOSE UPTAKE (Percent of Control) Without Insulin” value was 189 ± 4% of Control. For the same molecule, the “HEXOSE UPTAKE (Percent of Control) With Insulin” value in series [2] (as E1, 500 nM insulin 30 min prior to uptake assay) is listed as 158 ± 9% of Control. Moreover, the “competition for transport at high hexose level” value in series [3] is “does not compete for transport via the glucose transporter”. Besides, the PKB phosphorylation result in series [4] was “failed to induce significant phosphorylation”. In addition, the “reversal of 2-deoxy-D-glucose-induced downregulation of the hexose transport system” value in series [5] (20 mM pentose after 30 min 2 mM dGlc (FIG. 8)) is recorded as “better than any of the other pentoses”. The “rate of hexose transport downregulated by dGlc” value in series [5] (20 mM xylose after 2 hr 2 mM dGlc (FIG. 4B)) and in series [7] (20 mM D-xylose after 30 min 2 mM dGlc (FIG. 4A)) was “increased the rate of hexose transport” throughout. Also, the “rate of glucose transport” value in series [5] (setting [8]) and in series [7] (setting [8]) was “increases the rate of glucose transport” in each case. Also, in series [6], the half-life – broadly, the time in which the quantity being followed falls by half – fell in the range of 30 to 60 min. Also, the “time to half-maximal stimulation” value in series [7] is 20 to 30 min. Also, in series [7] (20 mM D-xylose with 8 or 16 mM glucose (FIG. 3)), the “hexose transport in the presence of glucose” value is on record as “augment hexose transport”. Also, in series [7] (20 mM pentose, preconditioned with 20 mM glucose (FIG. 7)), the “effect of pentoses on the rate of hexose transport” value is given as “most effective pentose”. Also, the “concentration at which maximal effect is obtained” value in series [7] (dose-response, 1 hr incubation, preconditioned with 20 mM glucose (FIG. 2)) amounted to 20 mM. Further, the “augmentation of the rate of hexose transport” value in series [7] (within 1-2 hr) is around 2 fold.
